These results are taken from US20260325533A1, “CDK INHIBITOR COMPOUNDS” (ALEKSIA THERAPEUTICS, INC., priority 2023, published 2026).

Where two headings read alike, the source gives them in different places.

Assay type in all cases: biochemical
For one assay, the target named is CDK6/CCND1 (Homo sapiens, UniProt Q00534). The assay can be described thus: CDK6 homogeneous time-resolved fluorescence (HTRF) kinase assay. Particulars: CDK6/CCND. Put shortly: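 Assay conditions: HEPES buffer containing 10 mM MgCl2, 1 mM EGTA, 2 mM DTT, 0.01% Tween 20; 1 nM CDK6/CCND1, 50 nM peptide substrate, 1 mM ATP. Detection after 60 min reaction used 2 nM europium antibody with 340 nm excitation. Potency fitted from half-log series, 11 points.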
CDK6/CCND1, sequence (Q00534 whole entry): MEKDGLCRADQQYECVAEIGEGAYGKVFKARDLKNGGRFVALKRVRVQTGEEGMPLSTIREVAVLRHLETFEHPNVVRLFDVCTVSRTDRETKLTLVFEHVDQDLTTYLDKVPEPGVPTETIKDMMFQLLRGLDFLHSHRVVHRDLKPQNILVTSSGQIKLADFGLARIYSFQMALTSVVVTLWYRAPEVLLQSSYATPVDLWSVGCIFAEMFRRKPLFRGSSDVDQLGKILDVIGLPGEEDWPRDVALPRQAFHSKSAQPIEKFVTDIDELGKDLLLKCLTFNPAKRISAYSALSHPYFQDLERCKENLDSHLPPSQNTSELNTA
CDK6/CCND1, sequence (P24385 whole entry partner): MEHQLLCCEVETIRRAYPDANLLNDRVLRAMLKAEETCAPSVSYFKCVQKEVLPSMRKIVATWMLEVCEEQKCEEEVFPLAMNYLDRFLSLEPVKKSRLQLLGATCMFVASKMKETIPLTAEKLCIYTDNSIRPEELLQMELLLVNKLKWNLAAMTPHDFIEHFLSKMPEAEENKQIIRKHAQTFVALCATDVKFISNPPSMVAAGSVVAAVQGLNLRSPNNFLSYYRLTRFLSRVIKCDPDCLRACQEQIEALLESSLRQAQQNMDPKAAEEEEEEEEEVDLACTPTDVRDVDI

In the next assay the target is CDK1/CCNB1 (Homo sapiens, UniProt P06493). In words: CDK1 homogeneous time-resolved fluorescence (HTRF) kinase assay. The note with it: CDK1/CCNB. Put shortly: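 High-ATP (1 mM) HTRF assay with 0.5 nM CDK1/cyclin B1 and 50 nM ULight-4E-BP1 (Thr37/46) substrate, 60 min at 23 °C after 20-min compound preincubation. IC50 values come from dose-response curves.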
CDK1/CCNB1, sequence (P06493 whole entry): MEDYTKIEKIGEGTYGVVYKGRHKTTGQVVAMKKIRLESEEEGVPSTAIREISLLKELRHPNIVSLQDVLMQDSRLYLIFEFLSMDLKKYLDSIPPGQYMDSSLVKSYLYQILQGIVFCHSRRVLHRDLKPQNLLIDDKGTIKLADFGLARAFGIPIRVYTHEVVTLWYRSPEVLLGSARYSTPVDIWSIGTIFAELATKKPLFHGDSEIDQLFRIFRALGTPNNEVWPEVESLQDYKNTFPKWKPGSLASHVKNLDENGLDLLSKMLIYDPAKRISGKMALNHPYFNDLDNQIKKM
CDK1/CCNB1, sequence (P14635 whole entry partner): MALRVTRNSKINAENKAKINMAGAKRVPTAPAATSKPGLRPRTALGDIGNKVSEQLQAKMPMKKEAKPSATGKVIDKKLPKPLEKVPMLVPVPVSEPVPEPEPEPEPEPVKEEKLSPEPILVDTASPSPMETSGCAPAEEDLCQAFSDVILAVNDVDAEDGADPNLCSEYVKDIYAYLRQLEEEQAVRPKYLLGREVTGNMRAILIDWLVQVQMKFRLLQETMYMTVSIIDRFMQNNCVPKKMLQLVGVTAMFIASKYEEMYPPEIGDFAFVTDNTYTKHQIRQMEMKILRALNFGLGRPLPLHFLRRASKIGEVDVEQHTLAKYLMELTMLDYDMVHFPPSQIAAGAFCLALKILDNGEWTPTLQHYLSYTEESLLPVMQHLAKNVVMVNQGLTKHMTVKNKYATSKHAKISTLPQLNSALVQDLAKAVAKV
For orientation: In TR-FRET formats the signal depends on donor and acceptor labels being close together.

A further assay addresses CDK4/CCND3 (Homo sapiens, UniProt P11802). The assay can be described thus: CDK4 homogeneous time-resolved fluorescence (HTRF) kinase assay. The note with it: CDK4/CCND. The gist of the method:
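TR-FRET read (665 nm, or 665/615 ratio) of 4E-BP1 Thr37/46 phosphorylation by 1.5 nM CDK4/CCND3 at 1 mM ATP, 50 nM ULight peptide, 1% DMSO. Reaction ran 60 min at 23 °C after 20 min compound–enzyme preincubation. IC50 from 11-point half-log dilutions, top 10 μM.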

For the next assay, the target named is CDK2/CCNE1 (Homo sapiens, UniProt P24941). In words: CDK2 homogeneous time-resolved fluorescence (HTRF) kinase assay. The note with it: CDK2/CCNE. Put shortly:
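IC50 derived from 11-point, half-log dilutions (usually top 10 μM) of compound, 1% DMSO. Kinase (3 nM CDK2/CCNE1) was preincubated with compound 20 min, then phosphorylated 50 nM ULight-4E-BP1 peptide at 1 mM ATP for 60 min, 23 °C. Europium-antibody TR-FRET read after EDTA stop.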

Where [1] appears, read: x = IC50 >250 nM, read-out: CDK6/CCND IC50 (>250 nM column).
[2] abbreviates: x = IC50 >250 nM, read-out: CDK1/CCNB IC50 (>250 nM column).
Where [3] appears, read: x = IC50 >250 nM, read-out: CDK4/CCND IC50 (>250 nM column).
Setting [4] is: x = IC50 25-250 nM, read-out: CDK2/CCNE IC50 (25-250 nM).
[5] abbreviates: x = IC50 <25 nM, read-out: CDK2/CCNE IC50 (<25 nM).
Where [6] appears, read: x = IC50 25-250 nM, read-out: CDK1/CCNB IC50 (25-250 nM).
Setting [7] is: x = IC50 25-250 nM, read-out: CDK6/CCND IC50 (25-250 nM).
[8] abbreviates: x = IC50 25-250 nM, read-out: CDK4/CCND IC50 (25-250 nM).

CDK4/CCND3, sequence (P11802 whole entry): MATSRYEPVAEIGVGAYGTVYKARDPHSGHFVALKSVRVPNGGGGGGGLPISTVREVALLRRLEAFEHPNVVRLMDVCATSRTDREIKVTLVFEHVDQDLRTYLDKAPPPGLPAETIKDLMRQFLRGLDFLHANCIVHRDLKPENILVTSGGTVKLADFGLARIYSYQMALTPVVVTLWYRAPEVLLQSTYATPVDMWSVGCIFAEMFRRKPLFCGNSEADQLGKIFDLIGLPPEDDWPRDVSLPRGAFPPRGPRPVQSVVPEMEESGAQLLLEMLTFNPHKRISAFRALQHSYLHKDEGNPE
CDK4/CCND3, sequence (P30281 whole entry partner): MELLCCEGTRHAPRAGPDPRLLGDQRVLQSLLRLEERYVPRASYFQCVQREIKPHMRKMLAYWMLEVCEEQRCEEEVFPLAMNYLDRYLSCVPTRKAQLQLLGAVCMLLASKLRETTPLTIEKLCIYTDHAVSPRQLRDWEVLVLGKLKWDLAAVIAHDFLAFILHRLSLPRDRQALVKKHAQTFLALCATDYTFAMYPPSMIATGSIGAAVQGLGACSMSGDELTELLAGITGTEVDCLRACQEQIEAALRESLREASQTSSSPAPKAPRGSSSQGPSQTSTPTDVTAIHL

As to `CC1(C)C(=O)Nc2cc(C#Cc3nccc4cnc(Nc5ccc(S(C)(=O)=O)c(Cl)c5)cc34)ccc21` [Ex 407, 6-((7-((3-chloro-4-(methylsulfonyl)phenyl)amino)-2,6-naphthyridin-1-yl)ethynyl)-3,3-dimethylindolin-2-one], the IC50 was above 250 nM on CDK6/CCND1 (setting [1]), above 250 nM on CDK1/CCNB1 (setting [2]), above 250 nM on CDK4/CCND3 (setting [3]) and 25 to 250 nM on CDK2/CCNE1 (setting [4]).

`CCC1(CC)C(=O)Nc2cc(C#Cc3nccc4cnc(Nc5ccc(S(=O)(=O)C6CCC6)cc5)cc34)ccc21` [Ex 409, 6-((7-((4-(cyclobutylsulfonyl)phenyl)amino)-2,6-naphthyridin-1-yl)ethynyl)-3,3-diethylindolin-2-one]: the IC50 on CDK6/CCND1 (setting [1]) was above 250 nM; at CDK1/CCNB1 (setting [2]) it was above 250 nM; on CDK4/CCND3 (setting [3]), above 250 nM; at CDK2/CCNE1 (setting [5]), below 25 nM.

With `CS(=O)(=O)c1ccc(Nc2cc3c(C#Cc4cccnc4N)nccc3cn2)c(F)c1` [Ex 418, 5-((2-aminopyridin-3-yl)ethynyl)-N-(2-fluoro-4-(methylsulfonyl)phenyl)-2,6-naphthyridin-3-amine], the IC50 was above 250 nM at CDK6/CCND1 (setting [1]), above 250 nM on CDK1/CCNB1 (setting [2]), above 250 nM on CDK4/CCND3 (setting [3]) and 25 to 250 nM on CDK2/CCNE1 (setting [4]).

As to `CS(=O)(=O)c1ccc(Nc2cc3c(C#Cc4cccnc4N)nccc3cn2)nc1` [Ex 419, 5-((2-aminopyridin-3-yl)ethynyl)-N-(5-(methylsulfonyl)pyridin-2-yl)-2,6-naphthyridin-3-amine], the IC50 is above 250 nM at CDK6/CCND1 (setting [1]), above 250 nM at CDK1/CCNB1 (setting [2]), above 250 nM at CDK4/CCND3 (setting [3]) and 25 to 250 nM on CDK2/CCNE1 (setting [4]).

In the case of `Cc1cc(S(C)(=O)=O)ccc1Nc1cc2c(C#Cc3cccnc3N)nccc2cn1` [Ex 420, 5-((2-aminopyridin-3-yl)ethynyl)-N-(2-methyl-4-(methylsulfonyl)phenyl)-2,6-naphthyridin-3-amine], the IC50 is above 250 nM on CDK6/CCND1 (setting [1]), above 250 nM at CDK1/CCNB1 (setting [2]), above 250 nM at CDK4/CCND3 (setting [3]) and 25 to 250 nM at CDK2/CCNE1 (setting [4]).

As for `CC1(C)C(=O)Nc2cc(C#Cc3nccc4cnc(Nc5ccc(S(C)(=O)=O)c(F)c5)cc34)ccc21` [Ex 422, 6-((7-((3-fluoro-4-(methylsulfonyl)phenyl)amino)-2,6-naphthyridin-1-yl)ethynyl)-3,3-dimethylindolin-2-one], the IC50 at CDK6/CCND1 (setting [1]) was above 250 nM; at CDK1/CCNB1 (setting [2]), above 250 nM; on CDK4/CCND3 (setting [3]), above 250 nM; at CDK2/CCNE1 (setting [5]) it was below 25 nM.

`CC1(C)C(=O)Nc2cc(C#Cc3nccc4cnc(Nc5ccc(S(C)(=O)=O)cc5Cl)cc34)ccc21` [Ex 423, 6-((7-((2-chloro-4-(methylsulfonyl)phenyl)amino)-2,6-naphthyridin-1-yl)ethynyl)-3,3-dimethylindolin-2-one]: the IC50 on CDK6/CCND1 (setting [1]) is above 250 nM; on CDK1/CCNB1 (setting [2]), above 250 nM; at CDK4/CCND3 (setting [3]), above 250 nM; on CDK2/CCNE1 (setting [5]), below 25 nM.

Consider `Cc1cc(S(C)(=O)=O)ccc1Nc1cc2c(C#Cc3ccc4c(c3)NC(=O)C4(C)C)nccc2cn1` [Ex 424, 3,3-dimethyl-6-((7-((2-methyl-4-(methylsulfonyl)phenyl)amino)-2,6-naphthyridin-1-yl)ethynyl)indolin-2-one], for which the IC50 at CDK6/CCND1 (setting [1]) is above 250 nM; on CDK1/CCNB1 (setting [6]), 25 to 250 nM; on CDK4/CCND3 (setting [3]), above 250 nM; at CDK2/CCNE1 (setting [5]), below 25 nM.

As for `CC1(C)C(=O)Nc2cc(C#Cc3nccc4cnc(Nc5ccc(S(C)(=O)=O)nc5)cc34)ccc21` [Ex 425, 3,3-dimethyl-6-((7-((6-(methylsulfonyl)pyridin-3-yl)amino)-2,6-naphthyridin-1-yl)ethynyl)indolin-2-one], the IC50 on CDK6/CCND1 (setting [1]) was above 250 nM; at CDK1/CCNB1 (setting [2]), above 250 nM; on CDK4/CCND3 (setting [3]), above 250 nM; at CDK2/CCNE1 (setting [4]), 25 to 250 nM.

With `CCC1(CC)C(=O)Nc2cc(C#Cc3nccc4cnc(Nc5ccc(S(=O)(=O)C(C)C)cc5)cc34)ccc21` [Ex 429, 3,3-diethyl-6-((7-((4-(isopropylsulfonyl)phenyl)amino)-2,6-naphthyridin-1-yl)ethynyl)indolin-2-one], the IC50 is above 250 nM on CDK6/CCND1 (setting [1]), above 250 nM on CDK1/CCNB1 (setting [2]), above 250 nM on CDK4/CCND3 (setting [3]) and below 25 nM at CDK2/CCNE1 (setting [5]).

Regarding `CCC1(CC)C(=O)Nc2cc(C#Cc3nccc4cnc(Nc5ccc(S(=O)(=O)CC)cc5)cc34)ccc21` [Ex 430, 3,3-diethyl-6-((7-((4-(ethylsulfonyl)phenyl)amino)-2,6-naphthyridin-1-yl)ethynyl)indolin-2-one], the IC50 is above 250 nM on CDK6/CCND1 (setting [1]), above 250 nM on CDK1/CCNB1 (setting [2]), above 250 nM at CDK4/CCND3 (setting [3]) and below 25 nM at CDK2/CCNE1 (setting [5]).

Regarding `CN1CCC(NS(=O)(=O)c2ccc(Nc3cc4c(C#Cc5cccnc5N)nccc4cn3)cc2)CC1` [Ex 432, 4-((5-((2-aminopyridin-3-yl)ethynyl)-2,6-naphthyridin-3-yl)amino)-N-(1-methylpiperidin-4-yl)benzenesulfonamide], the IC50 was 25 to 250 nM at CDK6/CCND1 (setting [7]), 25 to 250 nM at CDK1/CCNB1 (setting [6]), 25 to 250 nM at CDK4/CCND3 (setting [8]) and below 25 nM on CDK2/CCNE1 (setting [5]).

`Nc1ncccc1C#Cc1nccc2cnc(Nc3ccc(S(=O)(=O)NC4CCNCC4)cc3)cc12` [Ex 433, 4-((5-((2-aminopyridin-3-yl)ethynyl)-2,6-naphthyridin-3-yl)amino)-N-(piperidin-4-yl)benzenesulfonamide]: the IC50 at CDK6/CCND1 (setting [7]) was 25 to 250 nM; at CDK1/CCNB1 (setting [6]), 25 to 250 nM; on CDK4/CCND3 (setting [8]) it was 25 to 250 nM; on CDK2/CCNE1 (setting [5]), below 25 nM.

As for `Nc1ncccc1C#Cc1nccc2cnc(Nc3ccc(S(=O)(=O)NC4CCOCC4)cc3)cc12` [Ex 434, 4-((5-((2-aminopyridin-3-yl)ethynyl)-2,6-naphthyridin-3-yl)amino)-N-(tetrahydro-2H-pyran-4-yl)benzenesulfonamide], the IC50 on CDK6/CCND1 (setting [1]) is above 250 nM; on CDK1/CCNB1 (setting [2]) it was above 250 nM; on CDK4/CCND3 (setting [3]) it was above 250 nM; on CDK2/CCNE1 (setting [5]), below 25 nM.

In the case of `Nc1ncccc1C#Cc1nccc2cnc(Nc3ccc(S(=O)(=O)NC4CC4)cc3)cc12` [Ex 435, 4-((5-((2-aminopyridin-3-yl)ethynyl)-2,6-naphthyridin-3-yl)amino)-N-cyclopropylbenzenesulfonamide], the IC50 on CDK6/CCND1 (setting [1]) was above 250 nM; at CDK1/CCNB1 (setting [6]), 25 to 250 nM; at CDK4/CCND3 (setting [3]), above 250 nM; at CDK2/CCNE1 (setting [5]), below 25 nM.

With `CC1(C)C(=O)Nc2cc(C#Cc3nccc4cnc(Nc5ccc(S(C)(=O)=O)cn5)cc34)ccc21` [Ex 439, 3,3-dimethyl-6-((7-((5-(methylsulfonyl)pyridin-2-yl)amino)-2,6-naphthyridin-1-yl)ethynyl)indolin-2-one], the IC50 at CDK6/CCND1 (setting [1]) was above 250 nM; on CDK1/CCNB1 (setting [6]) it was 25 to 250 nM; at CDK4/CCND3 (setting [3]) it was above 250 nM; on CDK2/CCNE1 (setting [5]), below 25 nM.

Take `COc1cc(S(C)(=O)=O)ccc1Nc1cc2c(C#Cc3ccc4c(c3)NC(=O)C4(C)C)nccc2cn1` [Ex 440, 6-((7-((2-methoxy-4-(methylsulfonyl)phenyl)amino)-2,6-naphthyridin-1-yl)ethynyl)-3,3-dimethylindolin-2-one]: the IC50 is above 250 nM on CDK6/CCND1 (setting [1]), above 250 nM on CDK1/CCNB1 (setting [2]), above 250 nM on CDK4/CCND3 (setting [3]) and below 25 nM at CDK2/CCNE1 (setting [5]).

Regarding `CC1(C)C(=O)Nc2cc(C#Cc3nccc4cnc(Nc5ccc(S(=O)(=O)NC6CCNCC6)cc5)cc34)ccc21` [Ex 442, 4-((5-((3,3-dimethyl-2-oxoindolin-6-yl)ethynyl)-2,6-naphthyridin-3-yl)amino)-N-(piperidin-4-yl)benzenesulfonamide], the IC50 was 25 to 250 nM on CDK6/CCND1 (setting [7]); below 25 nM on CDK1/CCNB1 (x = IC50 <25 nM, read-out: CDK1/CCNB IC50 (<25 nM)); below 25 nM at CDK4/CCND3 (x = IC50 <25 nM, read-out: CDK4/CCND IC50 (<25 nM)); below 25 nM at CDK2/CCNE1 (setting [5]).

`CC1(C)C(=O)Nc2cc(C#Cc3nccc4cnc(Nc5ccc(S(=O)(=O)NC6CCOCC6)cc5)cc34)ccc21` [Ex 443, 4-((5-((3,3-dimethyl-2-oxoindolin-6-yl)ethynyl)-2,6-naphthyridin-3-yl)amino)-N-(tetrahydro-2H-pyran-4-yl)benzenesulfonamide]: the IC50 on CDK6/CCND1 (setting [1]) was above 250 nM; at CDK1/CCNB1 (setting [6]) it was 25 to 250 nM; on CDK4/CCND3 (setting [8]), 25 to 250 nM; at CDK2/CCNE1 (setting [5]), below 25 nM.
